{
  "source": "paper PMC5608353",
  "about": "(PLoS ONE, 2017)",
  "key": {"[1]": {"tested_on": "C. perfringens JT1"}, "[2]": {"tested_on": "human erythrocytes, epidermal keratinocytes, A549 cells, murine L929 fibroblasts, porcine intestinal epithelial cell line ZYMSIEC02", "details": "cited from earlier work"}, "[3]": {"tested_on": "C. perfringens CVCC 46"}, "[4]": {"tested_on": "C. perfringens JC2"}, "[5]": {"tested_on": "C. perfringens JZ10"}, "[6]": {"tested_on": "C. perfringens JT1", "test": "microbe, parasite or virus in culture", "details": "Clostridium perfringens, JT1, 18 h"}, "[7]": {"tested_on": "C. perfringens CVCC 51", "test": "microbe, parasite or virus in culture", "details": "Clostridium perfringens, CVCC51, 18 h"}, "[8]": {"tested_on": "C. perfringens JZ10", "test": "microbe, parasite or virus in culture", "details": "Clostridium perfringens, JZ10, 18 h"}, "[9]": {"tested_on": "C. perfringens JC2", "test": "microbe, parasite or virus in culture", "details": "Clostridium perfringens, JC2, 18 h"}, "[10]": {"tested_on": "C. perfringens CVCC 1137", "test": "microbe, parasite or virus in culture", "details": "Clostridium perfringens, CVCC1137, 18 h"}, "[11]": {"tested_on": "C. perfringens CVCC 46", "test": "microbe, parasite or virus in culture", "details": "Clostridium perfringens, CVCC46, read-out: MICa (MIC of drug used alone)"}, "[12]": {"tested_on": "C. perfringens CVCC 46", "details": "for MICa (MIC of drug used alone): chequerboard, triplicate"}, "[13]": {"tested_on": "C. perfringens CVCC 46", "test": "microbe, parasite or virus in culture", "details": "Clostridium perfringens, CVCC46, 18 h"}, "[14]": {"tested_on": "C. perfringens CVCC 46", "type": "cell-based, Clostridium perfringens type A"}, "[15]": {"tested_on": "C. perfringens CVCC 51", "details": "CVCC 51; broth microdilution, anaerobic 37°C, 12~18 h"}, "[16]": {"tested_on": "C. perfringens CVCC 1137", "details": "CVCC 1137; broth microdilution, anaerobic 37°C, 12~18 h"}, "[17]": {"details": "JT1, broth microdilution, anaerobic 37°C, 12~18 h"}, "[18]": {"details": "CVCC 46, broth microdilution, 1×10^5 CFU/mL, anaerobic 37°C, 12~18 h, triplicate"}, "[19]": {"details": "CVCC 46, broth microdilution, anaerobic 37°C, 12~18 h, triplicate"}, "[20]": {"details": "JC2, broth microdilution, anaerobic 37°C, 12~18 h"}, "[21]": {"details": "JZ10, broth microdilution, anaerobic 37°C, 12~18 h"}, "[22]": {"details": "CVCC 46, 2×MIC, 1×10^5 CFU/mL, 37°C, colony counts"}},
  "note": "Where two headings read alike, the source gives them in different places.",
  "data": [
    {"compound": "CC[C@H](C)[C@@H]1NC(=O)[C@H](CO)NC(=O)[C@H](CCCCN)NC(=O)[C@@H]2CSSC[C@@H](C(=O)N[C@@H](Cc3ccc(O)cc3)C(=O)O)NC(=O)[C@H](CCCCN)NC(=O)[C@@H]3CSSC[C@H](NC(=O)[C@H](CCC(N)=O)NC(=O)[C@H](CCSC)NC(=O)[C@H](CC(=O)O)NC(=O)[C@H](CC(=O)O)NC(=O)[C@H](CCC(=O)O)NC(=O)[C@H](CC(=O)O)NC(=O)[C@H](Cc4c[nH]c5ccccc45)NC(=O)[C@@H]4CCCN4C(=O)CNC(=O)[C@H](CC(N)=O)NC(=O)[C@@H](NC(=O)CNC(=O)[C@H](Cc4ccccc4)NC(=O)CN)CSSC[C@H](NC(=O)[C@H](Cc4ccc(O)cc4)NC(=O)CNC(=O)CNC(=O)[C@H](CCCCN)NC(=O)[C@H](Cc4ccc(O)cc4)NC(=O)CNC(=O)[C@H](CCCCN)NC1=O)C(=O)N[C@@H](C)C(=O)N[C@@H](CCCCN)C(=O)NCC(=O)NCC(=O)N[C@@H](Cc1ccccc1)C(=O)N[C@@H](C(C)C)C(=O)N3)C(=O)N[C@@H](Cc1c[nH]cn1)C(=O)N[C@@H](CC(N)=O)C(=O)N[C@@H](Cc1c[nH]cn1)C(=O)N2", "note": "[Plectasin]", "values": [
      {"measurement": "MIC", "setting": "[1]; JT1, 18 h", "result": 0.23, "unit": "µM"},
      {"measurement": "Hemolysis / cytotoxicity", "setting": "[2]", "result": "non-hemolytic or non-cytotoxic"},
      {"measurement": "MBC", "setting": "[3]; CVCC 46, 18 h", "result": 1.81, "unit": "µM"},
      {"measurement": "MIC", "setting": "[3]; CVCC 46, 18 h", "result": 1.81, "unit": "µM"},
      {"measurement": "MIC", "setting": "[4]; JC2, 18 h", "result": ">14.5", "unit": "µM"},
      {"measurement": "MIC", "setting": "[5]; JZ10, 18 h", "result": ">14.5", "unit": "µM"}
    ]},
    {"compound": "CN[C@H](CC(C)C)C(=O)N[C@H]1C(=O)N[C@@H](CC(N)=O)C(=O)N[C@H]2C(=O)N[C@H]3C(=O)N[C@H](C(=O)N[C@H](C(=O)O)c4cc(O)cc(O)c4-c4cc3ccc4O)[C@H](O)c3ccc(c(Cl)c3)Oc3cc2cc(c3O[C@@H]2O[C@H](CO)[C@@H](O)[C@H](O)[C@H]2O[C@H]2C[C@](C)(N)[C@H](O)[C@H](C)O2)Oc2ccc(cc2Cl)[C@H]1O", "note": "[Vancomycin]", "values": [
      {"measurement": "MIC", "setting": "[6]", "result": 0.69, "unit": "µM"},
      {"measurement": "MIC", "setting": "[7]", "result": 0.69, "unit": "µM"},
      {"measurement": "MIC", "setting": "[8]", "result": 22.1, "unit": "µM"},
      {"measurement": "MIC", "setting": "[9]", "result": 22.1, "unit": "µM"},
      {"measurement": "MIC", "setting": "[10]", "result": 0.69, "unit": "µM"},
      {"measurement": "MIC", "setting": "[11]", "result": 0.69, "unit": "µM"},
      {"measurement": "FIC", "setting": "[12]", "result": 0.5},
      {"measurement": "MICC (MIC of drug used in combination)", "setting": "[12]", "result": 0.345, "unit": "µM"},
      {"measurement": "MBC", "setting": "[13]", "result": 0.69, "unit": "µM"},
      {"measurement": "MIC", "setting": "[13]", "result": 0.69, "unit": "µM"},
      {"measurement": "Time to 99.9% reduction of bacterial counts", "setting": "[14]", "result": 8, "unit": "h"}
    ]},
    {"compound": "Bacitracin zinc", "values": [
      {"measurement": "MIC", "setting": "[15]", "result": 1.35, "unit": "µM"},
      {"measurement": "MIC", "setting": "[1]; [17]", "result": 0.67, "unit": "µM"},
      {"measurement": "MIC", "setting": "[16]", "result": 1.35, "unit": "µM"},
      {"measurement": "MIC", "setting": "[3]; [18]", "result": 0.67, "unit": "µM"},
      {"measurement": "MBC", "setting": "[3]; [19]", "result": 1.34, "unit": "µM"},
      {"measurement": "MIC", "setting": "[4]; [20]", "result": ">86.1", "unit": "µM"},
      {"measurement": "MIC", "setting": "[5]; [21]", "result": ">86.1", "unit": "µM"},
      {"measurement": "MICa (MIC of drug used alone)", "setting": "[12]; CVCC 46", "result": 0.67, "unit": "µM"},
      {"measurement": "FIC", "setting": "[12]; combination Bacitracin zinc-MP1102, MIC in combination / MIC alone", "result": 0.5},
      {"measurement": "FIC", "setting": "[12]; combination Bacitracin zinc-NZ2114, MIC in combination / MIC alone", "result": 0.25},
      {"measurement": "Time to 99.9% reduction of bacterial counts", "setting": "[14]; [22]", "result": 8, "unit": "h"}
    ]},
    {"compound": "Virginiamycin", "values": [
      {"measurement": "MIC", "setting": "[15]", "result": 0.24, "unit": "µM"},
      {"measurement": "MIC", "setting": "[1]; [17]", "result": 0.46, "unit": "µM"},
      {"measurement": "MIC", "setting": "[16]", "result": 0.48, "unit": "µM"},
      {"measurement": "MIC", "setting": "[3]; [18]", "result": 0.96, "unit": "µM"},
      {"measurement": "MBC", "setting": "[3]; [19]", "result": 0.96, "unit": "µM"},
      {"measurement": "MIC", "setting": "[4]; [20]", "result": 60.9, "unit": "µM"},
      {"measurement": "MIC", "setting": "[5]; [21]", "result": 121.8, "unit": "µM"},
      {"measurement": "MICa (MIC of drug used alone)", "setting": "[12]; CVCC 46", "result": 0.96, "unit": "µM"},
      {"measurement": "MICC (MIC of drug used in combination)", "setting": "[12]; combination Virginiamycin-MP1102, CVCC 46", "result": 0.12, "unit": "µM"},
      {"measurement": "FIC", "setting": "[12]; combination Virginiamycin-MP1102, MIC in combination / MIC alone", "result": 0.125},
      {"measurement": "MICC (MIC of drug used in combination)", "setting": "[12]; combination Virginiamycin-NZ2114, CVCC 46", "result": 0.48, "unit": "µM"},
      {"measurement": "FIC", "setting": "[12]; combination Virginiamycin-NZ2114, MIC in combination / MIC alone", "result": 0.5},
      {"measurement": "Time to 99.9% reduction of bacterial counts", "setting": "[14]; [22]", "result": "2~4 h"}
    ]}
  ]
}
